Structures can show the parent of a compound that is named as a salt.
Experiments:
[1] = test system: SV40-Luc; test: SV40-Luc control luciferase reporter assay, SV 5A8 cell line (SV40-Luc and SV40-R-Luc), control for non-specific inhibitors; type: cell-based, human; settings: SV 5A8 cells derived from SW480, 24 hours of incubation with compound, ratio Firefly/Renilla luciferase
In short: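 Dual-luciferase readout in SW480 lines with chromosomally integrated reporters, namely Tcf-4-driven firefly in Tcf 33.13 and Tcf 22C11, and SV40-driven firefly in SV 5A8, all with SV40-Renilla. Compound incubation is 24 h; IC50 comes from the normalised F/R ratio.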

[2] = test system: β-catenin/Tcf-4; test: cells; type: cell-based; settings: 24 hours of incubation with compound, ratio Firefly/Renilla luciferase
In short: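 SW480-derived lines with integrated reporters (Tcf-4-driven firefly luciferase; SV40 firefly as specificity control; SV40 Renilla for cell number/toxicity), treated 24 hours with titrated compounds, final 0.316% DMSO. Dual-luciferase read-out; firefly/Renilla ratio as % of control, duplicate plates, IC50 (nM) from curve fit.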

[3] = Homo sapiens, SW480, 24 h, Tcf 33.13 cells derived from SW480
[4] = Homo sapiens, Tcf22C11, 24 h, Tcf 22C11 cells derived from SW480

Row | IC50 ([1]; Homo sapiens, SV5A8, 24 h) | IC50 [2, 3] | IC50 [2, 4] | SMILES | further results
1 |  |  |  | C/C=C\c1ccc2c(NCc3ccc(NC(=O)c4ccc(F)cc4)cc3)nc(N(C)C)nc2c1 (as salt: HCl) [Example 97, N-{4-[({2-(dimethylamino)-7-[(1Z)-prop-1-en-1-yl]quinazolin-4-yl}amino)methyl]phenyl}-4-fluorobenzamide] | melting point: 246 °C
2 |  |  |  | CN(C)c1nc(NCc2ccc(NC(=O)c3ccc(F)cc3)cc2)c2ccc(CO)cc2n1 (as salt: HCl) [Example 93, N-[4-({[2-(dimethylamino)-7-(hydroxymethyl)quinazolin-4-yl]amino}methyl)phenyl]-4-fluorobenzamide] | melting point: 158 °C
3 |  |  |  | C#Cc1ccc2c(NCc3ccc(NC(=O)c4ccc(F)cc4)cc3)nc(N(C)C)nc2c1 (as salt: HCl) [Example 108, N-[4-({[2-(dimethylamino)-7-ethynylquinazolin-4-yl]amino}methyl)phenyl]-4-fluorobenzamide] | melting point: 250 °C
4 |  |  |  | C/C=C/c1ccc2c(NCc3ccc(NC(=O)c4ccc(F)cc4)cc3)nc(N(C)C)nc2c1 (as salt: HCl) [Example 96, N-{4-[({2-(dimethylamino)-7-[(1E)-prop-1-en-1-yl]quinazolin-4-yl}amino)methyl]phenyl}-4-fluorobenzamide] | melting point: 268 °C
5 |  |  |  | CN(C)c1nc(NCc2ccc(NC(=O)c3ccc(F)cc3)cc2)c2ccc(-c3ccccc3C=O)cc2n1 (as salt: HCl) [Example 98, N-[4-({[2-(dimethylamino)-7-(2-formylphenyl)quinazolin-4-yl]amino}methyl)phenyl]-4-fluorobenzamide] | melting point: 128 °C
6 |  |  |  | CC(O)c1ccc2c(NCc3ccc(NC(=O)c4ccc(F)cc4)cc3)nc(N(C)C)nc2c1 (centres unmarked) (as salt: HCl) [Example 95, N-[4-({[2-(dimethylamino)-7-(1-hydroxyethyl)quinazolin-4-yl]amino}methyl)phenyl]-4-fluorobenzamide] | melting point: 232 °C
7 |  |  |  | Cc1ccc2c(NCc3ccc(NC(=O)C4CCN(Cc5ccccc5)CC4)cc3)nc(N(C)C)nc2c1 (as salt: HCl) [Example 129, 1-benzyl-N-[4-({[2-(dimethylamino)-7-methylquinazolin-4-yl]amino}methyl)phenyl]piperidine-4-carboxamide] | melting point: 100 °C
8 |  |  |  | CCc1ccc2c(NCc3ccc(NC(=O)c4ccc(F)cc4)cc3)nc(N(C)C)nc2c1 (as salt: HCl) [Example 88, N-[4-({[2-(dimethylamino)-7-ethylquinazolin-4-yl]amino}methyl)phenyl]-4-fluorobenzamide] | melting point: 270 °C
9 | > 5170 nM | 2010 nM | 1740 nM | Cc1ccc2nc(N3CCCCCC3)nc(NCc3ccc(NC(=O)c4ccc(F)cc4)cc3)c2c1 [Example 56, N-(4-{[(2-azepan-1-yl-6-methylquinazolin-4-yl)amino]methyl}phenyl)-4-fluorobenzamide] | 
10 | > 21600 nM | > 21600 nM | > 21600 nM | CNc1nc(NCc2ccc(NC(=O)c3ccc(Cl)cc3F)cc2)c2cc(C)cc(C)c2n1 [Example 35, 4-chloro-N-[4-({[6,8-dimethyl-2-(methylamino)quinazolin-4-yl]amino}methyl)phenyl]-2-fluorobenzamide] | 
11 | > 5370 nM | 402 nM | 526 nM | CNc1nc(NCc2ccc(NC(=O)c3ccc(C(F)(F)F)cc3)cc2)c2cc(C)ccc2n1 [Example 27, N-[4-({[6-methyl-2-(methylamino)quinazolin-4-yl]amino}methyl)phenyl]-4-(trifluoromethyl)benzamide] | 
12 | > 22000 nM | > 22000 nM | > 22000 nM | Cc1ccc2nc(N3CCCC3)nc(NCc3ccc(NC(=O)c4ccc(F)cc4)cc3)c2c1 [Example 44, N-(4-((2-(1-azacyclopentyl)-6-methylquinazolin-4-ylamino)methyl)phenyl)-4-fluorobenzamide] | 
13 | > 4470 nM | 456 nM | 534 nM | CN(C)c1nc(NCc2ccc(NC(=O)c3ccc(Cl)nc3)cc2)c2cc(I)ccc2n1 [Example 72, 6-chloro-N-[4-({[2-(dimethylamino)-6-iodoquinazolin-4-yl]amino}methyl)phenyl]nicotinamide] | 
14 | > 7880 nM | 650 nM | 918 nM | Cc1ccc2c(NCc3ccc(NC(=O)c4ccc(F)cc4)cc3)nc(N(C)CCc3ccccn3)nc2c1 [Example 222, 4-fluoro-N-{4-[({7-methyl-2-[methyl(2-pyridin-2-ylethyl)amino]quinazolin-4-yl}amino)methyl]phenyl}benzamide] | 
15 | > 1090 nM | 379 nM | 452 nM | Cc1ccc2c(NCc3ccc(NC(=O)c4ccc(F)cc4)cc3)nc(N(C)CCO)nc2c1 [Example 214, 4-fluoro-N-{4-[({2-[(2-hydroxyethyl)(methyl)amino]-7-methylquinazolin-4-yl}amino)methyl]phenyl}benzamide] | 
16 | > 18400 nM | 846 nM | 1230 nM | CCOC(=O)N1CCN(c2nc(NCc3ccc(NC(=O)c4ccc(F)cc4)cc3)c3cc(C)ccc3n2)CC1 [Example 54, Ethyl 4-[4-({4-[(4-fluorobenzoyl)amino]benzyl}amino)-6-methylquinazolin-2-yl]piperazine-1-carboxylate] | 
17 | > 3010 nM | 588 nM | 942 nM | CCNc1nc(NCc2ccc(NC(=O)c3ccc(F)cc3)cc2)c2ccccc2n1 [Example 118, N-[4-({[2-(ethylamino)quinazolin-4-yl]amino}methyl)phenyl]-4-fluorobenzamide] | 
18 | > 9820 nM | 393 nM | 551 nM | C=Cc1ccc2c(N[C@@H](C)c3ccc(NC(=O)c4ccc(Cl)nc4)cc3)nc(N(C)C)nc2c1 [Example 106, 6-chloro-N-[4-((1S)-1-{[2-(dimethylamino)-7-vinylquinazolin-4-yl]amino}ethyl)phenyl]nicotinamide] | 
19 |  |  |  | Cc1ccc2nc(N3CCN(C)CC3)nc(NCc3ccc(NC(=O)c4ccc(F)cc4)cc3)c2c1 [Example 46, 4-fluoro-N-((6-methyl-2-(4-methylpiperazin-1-yl)quinazolin-4-ylamino)methyl-phenyl)benzamide] | IC50 [1]: > 20800 nM; IC50 ([2]; Tcf 22C11 cells derived from SW480): > 20800 nM; IC50 ([2]; Tcf 33.13 cells derived from SW480): > 20800 nM
20 | > 10000 nM | 1600 nM | 923 nM | CCN1CCN(c2nc(NCc3ccc(NC(=O)c4ccc(F)cc4)cc3)c3cc(C)ccc3n2)CC1 [Example 57, N-[4-({[2-(4-ethylpiperazin-1-yl)-6-methylquinazolin-4-yl]amino}methyl)phenyl]-4-fluorobenzamide] | 
21 | > 15200 nM | 939 nM | 1280 nM | CCOC(=O)N1CCN(c2nc(NCc3ccc(NC(=O)c4ccc(F)cc4)cc3)c3ccc(C)cc3n2)CC1 [Example 218, ethyl 4-[4-({4-[(4-fluorobenzoyl)amino]benzyl}amino)-7-methylquinazolin-2-yl]piperazine-1-carboxylate] | 
22 | > 5920 nM | 2960 nM | 2710 nM | CNc1nc(NCc2ccc(NC(=O)c3ccc(C#N)cc3)cc2)c2cc(C)ccc2n1 [Example 25, 4-cyano-N-[4-({[6-methyl-2-(methylamino)quinazolin-4-yl]amino}methyl)phenyl]benzamide] | 
23 | > 2560 nM | 599 nM | 499 nM | C/C=C\c1ccc2c(NCc3ccc(NC(=O)c4ccc(F)cc4)cc3)nc(N(C)C)nc2c1 [Example 97, N-{4-[({2-(dimethylamino)-7-[(1Z)-prop-1-en-1-yl]quinazolin-4-yl}amino)methyl]phenyl}-4-fluorobenzamide] | 
24 | > 9280 nM | 754 nM | 866 nM | Cc1ccc2c(NCc3ccc(NC(=O)c4ccc(F)cc4)cc3)nc(N3CCC(N4CCCC4)CC3)nc2c1 [Example 226, 4-fluoro-N-[4-({[7-methyl-2-(4-pyrrolidin-1-ylpiperidin-1-yl)quinazolin-4-yl]amino}methyl)phenyl]benzamide] | 
25 | > 12400 nM | 1390 nM | 1710 nM | Cc1ccc2c(NCc3ccc(NC(=O)c4ccc(F)cc4)cc3)nc(N3CCN(CC(=O)N4CCCC4)CC3)nc2c1 [Example 213, 4-fluoro-N-{4-[({7-methyl-2-[4-(2-oxo-2-pyrrolidin-1-ylethyl)piperazin-1-yl]quinazolin-4-yl}amino)methyl]phenyl}benzamide] | 
26 | > 20100 nM | 1930 nM | 1830 nM | Cc1ccc2c(NCc3ccc(NC(=O)C4CCN(Cc5ccco5)CC4)cc3)nc(N(C)C)nc2c1 [Example 246, N-[4-({[2-(dimethylamino)-7-methylquinazolin-4-yl]amino}methyl)phenyl]-1-(2-furylmethyl)piperidine-4-carboxamide] | 
27 | > 4830 nM | 1300 nM | 2860 nM | CN(C)c1nc(NCc2ccc(NC(=O)c3ccc(F)cc3)cc2)c2ccc(CN)cc2n1 [Example 90, N-[4-({[7-(aminomethyl)-2-(dimethylamino)quinazolin-4-yl]amino}methyl)phenyl]-4-fluorobenzamide] | 
28 | > 2730 nM | 396 nM | 558 nM | CCN(CC)c1nc(NCc2ccc(NC(=O)c3ccc(F)cc3)cc2)c2ccc(C)cc2n1 [Example 211, N-[4-({[2-(diethylamino)-7-methylquinazolin-4-yl]amino}methyl)phenyl]-4-fluorobenzamide] | 
